Measured values from patent US8426673B2, “Pathological animal model for pelvic pain syndrome” (Astellas Pharma, Inc., priority 2008, dated 2013).
Where two headings read alike, the source gives them in different places.

Legend:
Male Wistar rats [1] = assay: Intra testicular injection of NGF-induced pain or discomfort behavior; type: in vivo, rat; details: 10 to 30 minutes after injection, p<0.01
Description: (§1) Male Wistar rats aged 5 to 12 weeks (Charles River Japan) were used. Positions of the testes were confirmed by keeping the waist of each rat from the dorsal side, and a stimulative substance at a volume of 1 ml/kg was administered into the right and left testes using a syringe equipped with a 27 G needle.
When the intra-testicular administration is achieved, the testes are swelled and become hard in touch. The individuals whose testes were not swelled after the injection were judged as failure in the injection and excluded from further analysis. […]
(1) Dose dependency of NGF: Mouse NGF 2.5S (Alomone Labs, Ltd., Israel) at […] or saline (vehicle solution) was administered to both of the testes in rat. […] Thus, the total time the behavior of 1) was measured by a stopwatch from 10 to 30 minutes after the intra testicular injection.
(2) Effects of morphine: Morphine (Takeda Chemical Industry, Ltd., Japan) at 5 mg/kg or saline (vehicle solution) was subcutaneously administered 30 minutes before the intra testicular injection of 100 μg/kg NGF. Total time of the above mentioned characteristic pain or discomfort behavior was measured from 10 to 30 minutes after the intra testicular injection of NGF. […]

Male Wistar rats [2] = assay: Intra testicular injection of acetic acid-induced characteristic pain or discomfort behavior; type: in vivo, rat
Description: as §1
When the intra-testicular administration is achieved, the testes are swelled and become hard in touch. The individuals whose testes were not swelled after the injection were judged as failure in the injection and excluded from further analysis. In addition, dye mixed stimulative substance was injected into the testes and the distribution of the dye within the testes was checked after completion of the experiments to verify whether a stimulative substance was successfully administered or not.
All data was presented as mean and standard error of the mean. The unpaired parametric t-test was used to compare the two group. The parametric Dunnett's multiple comparison test was performed to compare the three groups or more. P<0.05 was considered statistically significant.
(1) Dose-dependency of acetic acid: A rat was placed individually in a clear, round, plastic container (Natsume, Japan) for observation immediately after the intra testicular injection of 0.3, 1 and 3% acetic acid aqueous solutions or distilled water. […] Among these behaviors, the number of behaviors 1) to 3), frequently observed behavior, was counted from 5 to 20 minutes after the intra testicular injection of acetic acid.
(2) Effects of indomethacin: Indomethacin at 5 mg/3 mL/kg (Sigma-Aldrich Japan, Japan) or 0.1% Na2CO3 aqueous solution (vehicle solution) was orally administered 1 hour before the intra testicular injection of 1% acetic acid. Number of the characteristic pain or discomfort behavior was measured in the same manner as described in the above section.

Male Wistar rats [3] = details: 1% acetic acid 1 ml/kg intra testicular; 30 to 60 min after injection; distilled water group 97±8%; p<0.05
Description: All data was presented as mean and standard error of the mean. The unpaired parametric t-test was used to compare the two group. P<0.05 was considered statistically significant.

Male Wistar rats [4] = assay: Effects of intra testicular injection of NGF on bladder capacity (conscious cystometry); type: in vivo, rat; details: 100 μg/kg NGF (1 ml/kg) intra testicular; 30 to 60 min after injection; saline group 104±14%; p<0.01
Description: P<0.05 was considered statistically significant.
After that, “pre bladder capacity” was recorded for 1 hr. […] Physiological saline (1 ml/kg) or 100 μg/kg NGF (1 ml/kg) were injected into the testes. […] The bladder capacity in the saline treated group was 104±14%, thus showing no significant change. […] This change was significant in comparison with that of physiological saline treated group (FIG. 6).

For `CN1CC[C@]23c4c5ccc(O)c4O[C@H]2[C@@H](O)C=C[C@H]3[C@H]1C5` [morphine, Morphine], the “total time of the characteristic pain or discomfort behavior” value (Male Wistar rats [1]; 5 mg/kg subcutaneously 30 minutes before intra testicular 100 μg/kg NGF, vehicle group 167±31 seconds) was 9 ± 4 s.

`COc1ccc2c(c1)c(CC(=O)O)c(C)n2C(=O)c1ccc(Cl)cc1` [indomethacin, Indomethacin] was tested, and the “number of the characteristic pain or discomfort behaviors” value (Male Wistar rats [2]; 5 mg/3 mL/kg orally 1 hour before intra testicular 1% acetic acid, counted 5 to 20 minutes, vehicle group 19±6 times, p<0.01) was 3±2 times.

For `CC(=O)O` [acetic acid], the “characteristic pain or discomfort behaviors” value (Male Wistar rats [2]; 0.3% acetic acid aqueous solution, 1 ml/kg intra testicular, 5 to 20 minutes after injection, rat) was “No characteristic pain or discomfort behaviors was observed”, the “number of pain or discomfort behaviors” value (Male Wistar rats [2]; 1% acetic acid aqueous solution, 1 ml/kg intra testicular; behaviors 1) to 3) counted 5 to 20 minutes after injection, rat) was 16±2 times and the “number of pain or discomfort behaviors” value (Male Wistar rats [2]; 3% acetic acid aqueous solution, 1 ml/kg intra testicular; behaviors 1) to 3) counted 5 to 20 minutes after injection, rat) was 19±6 times. The “bladder capacity, percent of the pre bladder capacity” value (Male Wistar rats [3]) was 53±12%.

B1: NGF: Mouse NGF 2.5S (Alomone Labs), nerve growth factor used as stimulative substance injected into the testes (protein, UniProt P01139 122-241, looked up)
Beta-nerve growth factor: SSTHPVFHMGEFSVCDSVSVWVGDKTTATDIKGKEVTVLAEVNINNSVFRQYFFETKCRASNPVESGCRGIDSKHWNSYCTTTHTFVKALTTDEKQAAWRFIRIDTACVCVLSRKATRRG
In the case of B1, the “bladder capacity, percent of the pre bladder capacity” value (Male Wistar rats [4]) is reported as 29±9% and the “total time of the characteristic pain or discomfort behavior (scratching the body vigorously with hindlimbs)” value (Male Wistar rats [1]; 100 μg/ml/kg NGF intra testicular, vehicle group 1.0±0.4 second) is reported as 155 ± 29 s.
